Data published in patent US5593984A, “Cephalosporin derivatives” (Yuhan Corporation, priority 1992, dated 1997).
Values after ≈ are worked out from the molar mass of the structure shown.

What was measured:
Assay type in all cases: cell-based
B. subtilis ATCC 6633 = experiment: MIC by agar dilution, B. subtilis ATCC 6633; settings: Bacillus subtilis, ATCC6633, 17 h; B. subtilis ATCC 6633; agar dilution, Mueller-Hinton agar; read-out: Minimal Inhibitory Concentration (MIC)
How it was run: (§1)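 MIC is the endpoint, obtained by agar dilution after 17±1 hours at 35°-37° C. on Mueller-Hinton agar containing doubling compound concentrations; strains inoculated at 10^6 CFU per ml.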

Staph. aureus ATCC 6538P = experiment: MIC by agar dilution, Staph. aureus ATCC 6538P; settings: Staphylococcus aureus, ATCC6538P, 17 h; Staph. aureus ATCC 6538P; agar dilution, Mueller-Hinton agar; read-out: Minimal Inhibitory Concentration (MIC)
How it was run: as §1

Staph. aureus Smith = experiment: MIC by agar dilution, Staph. aureus Smith; settings: Staphylococcus aureus, 17 h, Mueller-Hinton agar, read-out: Minimal Inhibitory Concentration (MIC)
How it was run: as §1

Staph. aureus C-57 = experiment: MIC by agar dilution, Staph. aureus C-57; settings: Staphylococcus aureus, C57, 17 h, Mueller-Hinton agar, read-out: Minimal Inhibitory Concentration (MIC)
How it was run: as §1

Staph. aureus C-5113 = experiment: MIC by agar dilution, Staph. aureus C-5113; settings: Staphylococcus aureus, C5113, 17 h, Mueller-Hinton agar, read-out: Minimal Inhibitory Concentration (MIC)
How it was run: as §1

Staph. aureus C-5216 = experiment: MIC by agar dilution, Staph. aureus C-5216; settings: Staphylococcus aureus, C5216, 17 h, Mueller-Hinton agar, read-out: Minimal Inhibitory Concentration (MIC)
How it was run: as §1

[1] = test system: S. epidermidis ATCC 12228; experiment: MIC by agar dilution, S. epidermidis ATCC 12228; settings: Staphylococcus epidermidis, ATCC12228, 17 h; S. epidermidis ATCC 12228; agar dilution, Mueller-Hinton agar; read-out: Minimal Inhibitory Concentration (MIC)
How it was run: as §1

Ent. aerogenes IFO 12979 = experiment: MIC by agar dilution, Ent. aerogenes IFO 12979; settings: Klebsiella aerogenes, IFO12979, 17 h, Mueller-Hinton agar, read-out: Minimal Inhibitory Concentration (MIC)
How it was run: as §1

Ent. cloacae IFO 13535 = experiment: MIC by agar dilution, Ent. cloacae IFO 13535; settings: Enterobacter cloacae, IFO13535, 17 h; Ent. cloacae IFO 13535; agar dilution, Mueller-Hinton agar; read-out: Minimal Inhibitory Concentration (MIC)
How it was run: as §1

E. coli NIHJ JC-2 = experiment: MIC by agar dilution, E. coli NIHJ JC-2; settings: Escherichia coli, NIHJJC2, 17 h; E. coli NIHJ JC-2; agar dilution, Mueller-Hinton agar; read-out: Minimal Inhibitory Concentration (MIC)
How it was run: as §1

E. coli No. 29 = experiment: MIC by agar dilution, E. coli No. 29; settings: Escherichia coli, 17 h; E. coli No. 29; agar dilution, Mueller-Hinton agar; read-out: Minimal Inhibitory Concentration (MIC)
How it was run: as §1

E. coli DY-1 = experiment: MIC by agar dilution, E. coli DY-1; settings: Escherichia coli, DY1, 17 h; E. coli DY-1; agar dilution, Mueller-Hinton agar; read-out: Minimal Inhibitory Concentration (MIC)
How it was run: as §1

K. pneumoniae NCTC 9632 = experiment: MIC by agar dilution, K. pneumoniae NCTC 9632; settings: Klebsiella pneumoniae, NCTC9632, 17 h; K. pneumoniae NCTC 9632; agar dilution, Mueller-Hinton agar; read-out: Minimal Inhibitory Concentration (MIC)
How it was run: as §1

M. morganii DY-1 = experiment: MIC by agar dilution, M. morganii DY-1; settings: Morganella morganii, DY1, 17 h; M. morganii DY-1; agar dilution, Mueller-Hinton agar; read-out: Minimal Inhibitory Concentration (MIC)
How it was run: as §1

[2] = test system: Ps. aeruginosa ATCC 10145; experiment: MIC by agar dilution, Ps. aeruginosa ATCC 10145; settings: Pseudomonas aeruginosa, ATCC10145, 17 h, Mueller-Hinton agar, read-out: Minimal Inhibitory Concentration (MIC)
How it was run: as §1

[3] = test system: Ps. aeruginosa NCTC 10490; experiment: MIC by agar dilution, Ps. aeruginosa NCTC 10490; settings: Pseudomonas aeruginosa, NCTC10490, 17 h, Mueller-Hinton agar, read-out: Minimal Inhibitory Concentration (MIC)
How it was run: as §1

Ps. aeruginosa DY-2 = experiment: MIC by agar dilution, Ps. aeruginosa DY-2; settings: Pseudomonas aeruginosa, DY2, 17 h; Ps. aeruginosa DY-2; agar dilution, Mueller-Hinton agar; read-out: Minimal Inhibitory Concentration (MIC)
How it was run: as §1

P. vulgaris NCTC 8313 = experiment: MIC by agar dilution, P. vulgaris NCTC 8313; settings: Proteus vulgaris, NCTC8313, 17 h; P. vulgaris NCTC 8313; agar dilution, Mueller-Hinton agar; read-out: Minimal Inhibitory Concentration (MIC)
How it was run: as §1

Prov. stuartii IFO 12930 = experiment: MIC by agar dilution, Prov. stuartii IFO 12930; settings: Providencia stuartii, IFO12930, 17 h, Mueller-Hinton agar, read-out: Minimal Inhibitory Concentration (MIC)
How it was run: as §1

[4] = test system: Ser. marcescens IFO 12648; experiment: MIC by agar dilution, Ser. marcescens IFO 12648; settings: Serratia marcescens, IFO12648, 17 h; Ser. marcescens IFO 12648; agar dilution, Mueller-Hinton agar; read-out: Minimal Inhibitory Concentration (MIC)
How it was run: as §1

| SMILES | MIC (B. subtilis ATCC 6633) [µg/mL] | MIC (Staph. aureus ATCC 6538P) [µg/mL] | MIC (Staph. aureus Smith) [µg/mL] | MIC (Staph. aureus C-57) [µg/mL] | MIC (Staph. aureus C-5113) [µg/mL] | MIC (Staph. aureus C-5216) [µg/mL] | MIC [1] [µg/mL] | MIC (Ent. aerogenes IFO 12979) [µg/mL] | MIC (Ent. cloacae IFO 13535) [µg/mL] | MIC (E. coli NIHJ JC-2) [µg/mL] | MIC (E. coli No. 29) [µg/mL] | MIC (E. coli DY-1) [µg/mL] | MIC (K. pneumoniae NCTC 9632) [µg/mL] | MIC (M. morganii DY-1) [µg/mL] | MIC [2] [µg/mL] | MIC [3] [µg/mL] | MIC (Ps. aeruginosa DY-2) [µg/mL] | MIC (P. vulgaris NCTC 8313) [µg/mL] | MIC (Prov. stuartii IFO 12930) [µg/mL] | MIC [4] [µg/mL] |
| --- | --- | --- | --- | --- | --- | --- | --- | --- | --- | --- | --- | --- | --- | --- | --- | --- | --- | --- | --- | --- |
| C#CCON=C(C(=O)NC1C(=O)N2C(C(=O)[O-])=C(C[n+]3ccn4cccc4c3)CSC12)c1csc(N)n1 (stereo not drawn) [Ex. 4, 7-β-[(Z)-2-(2-aminothiazol-4-yl)-2-(propyn-1-oxyimino)acetamido]-3-(pyrrolo[1,2-a]pyrazinium-2-yl)methyl-3-cephem-4-carboxylate] | 0.78 (≈ 1.45 µM) | 0.2 (≈ 0.372 µM) | 0.39 (≈ 0.725 µM) | 25 (≈ 46.5 µM) | 0.39 (≈ 0.725 µM) | 0.78 (≈ 1.45 µM) | 0.1 (≈ 0.186 µM) | 0.012 (≈ 0.0223 µM) | 0.78 (≈ 1.45 µM) | 0.39 (≈ 0.725 µM) | 0.012 (≈ 0.0223 µM) | ≤ 0.006 | 0.05 (≈ 0.093 µM) | 0.05 (≈ 0.093 µM) | 1.56 (≈ 2.9 µM) | 0.78 (≈ 1.45 µM) | 6.25 (≈ 11.6 µM) | 0.012 (≈ 0.0223 µM) | 0.05 (≈ 0.093 µM) | 0.1 (≈ 0.186 µM) |
| CO/N=C(\C(=O)N[C@@H]1C(=O)N2C(C(=O)[O-])=C(C[n+]3ccn4cccc4c3C)CS[C@H]12)c1csc(N)n1 [Ex. 40, 7-β-[(Z)-2-(2-aminothiazol-4-yl)-2-methoxylminoacetamido]-3-(1-methylpyrrolo[1,2-a]pyrazinium-2-yl)methyl-3-cephem-4-carboxylate] | 0.1 (≈ 0.19 µM) | 0.05 (≈ 0.0948 µM) | 0.2 (≈ 0.379 µM) | 12.5 (≈ 23.7 µM) | 0.78 (≈ 1.48 µM) | 0.78 (≈ 1.48 µM) | 0.05 (≈ 0.0948 µM) | 0.012 (≈ 0.0227 µM) | 0.025 (≈ 0.0474 µM) | 0.012 (≈ 0.0227 µM) | ≤ 0.006 | ≤ 0.006 | ≤ 0.006 | 0.012 (≈ 0.0227 µM) | 0.78 (≈ 1.48 µM) | 0.39 (≈ 0.739 µM) | 3.13 (≈ 5.93 µM) | 0.012 (≈ 0.0227 µM) | ≤ 0.006 | 0.012 (≈ 0.0227 µM) |
| CO/N=C(\C(=O)N[C@@H]1C(=O)N2C(C(=O)[O-])=C(C[n+]3ccn4cccc4c3)CS[C@H]12)c1nc(N)sc1Cl [Ex. 47, 7-β-[(Z)-2-(2-amino-5-chlorothiazol-4-yl)-2-methoxyiminoacetamido]-3-(pyrrolo[1,2-a]pyrazinium-2-yl)methyl-3-cephem-4-carboxylate] | 0.025 (≈ 0.0456 µM) | 0.05 (≈ 0.0912 µM) | 0.2 (≈ 0.365 µM) | 1.56 (≈ 2.85 µM) | 0.2 (≈ 0.365 µM) | 0.2 (≈ 0.365 µM) | 0.025 (≈ 0.0456 µM) | 0.012 (≈ 0.0219 µM) | 0.39 (≈ 0.712 µM) | 0.1 (≈ 0.182 µM) | 0.05 (≈ 0.0912 µM) | 0.012 (≈ 0.0219 µM) | 0.05 (≈ 0.0912 µM) | 0.05 (≈ 0.0912 µM) | 0.78 (≈ 1.42 µM) | 0.05 (≈ 0.0912 µM) | 3.13 (≈ 5.71 µM) | ≤ 0.006 | 0.025 (≈ 0.0456 µM) | 0.1 (≈ 0.182 µM) |
| CON=C(C(=O)NC1C(=O)N2C(C(=O)[O-])=C(C[n+]3ccn4c(C(C)O)ccc4c3)CSC12)c1csc(N)n1 (stereo not drawn) [Ex. 20, 7-β-[(Z)-2-(2-aminothiazol-4-yl)-2-methoxyiminoacetamido]-3-[6-(1-hydroxyethyl)pyrrolo[1,2-a]pyrazinium-2-yl]methyl-3-cephem-4-carboxylate] | 0.1 (≈ 0.179 µM) | 0.2 (≈ 0.359 µM) | 0.78 (≈ 1.4 µM) | 50 (≈ 89.7 µM) | 1.56 (≈ 2.8 µM) | 1.56 (≈ 2.8 µM) | 0.2 (≈ 0.359 µM) | ≤ 0.006 | 0.1 (≈ 0.179 µM) | 0.025 (≈ 0.0448 µM) | ≤ 0.006 | ≤ 0.006 | 0.012 (≈ 0.0215 µM) | 0.012 (≈ 0.0215 µM) | 0.78 (≈ 1.4 µM) | 0.2 (≈ 0.359 µM) | 3.13 (≈ 5.61 µM) | 0.012 (≈ 0.0215 µM) | ≤ 0.006 | 0.025 (≈ 0.0448 µM) |
| CCO/N=C(\C(=O)N[C@@H]1C(=O)N2C(C(=O)[O-])=C(C[n+]3cc(CC)n4cccc4c3)CS[C@H]12)c1csc(N)n1 [Ex. 38, 7-β-[(Z)-2-(2-aminothiazol-4-yl)-2-ethoxyiminoacetamido]-3-(4-ethylpyrrolo[1,2-a]pyrazinium-2-yl)methyl-3-cephem-4-carboxylate] | 0.2 (≈ 0.36 µM) | 0.2 (≈ 0.36 µM) | 0.39 (≈ 0.702 µM) | 12.5 (≈ 22.5 µM) | 1.56 (≈ 2.81 µM) | 1.56 (≈ 2.81 µM) | 0.1 (≈ 0.18 µM) | 0.025 (≈ 0.045 µM) | 0.2 (≈ 0.36 µM) | 0.05 (≈ 0.09 µM) | ≤ 0.006 | ≤ 0.006 | 0.05 (≈ 0.09 µM) | 0.05 (≈ 0.09 µM) | 3.13 (≈ 5.63 µM) | 0.78 (≈ 1.4 µM) | 3.13 (≈ 5.63 µM) | 0.012 (≈ 0.0216 µM) | 0.05 (≈ 0.09 µM) | 0.05 (≈ 0.09 µM) |
| CO/N=C(\C(=O)N[C@@H]1C(=O)N2C(C(=O)[O-])=C(C[n+]3ccn4ccc(Cl)c4c3)CS[C@H]12)c1csc(N)n1 [Ex. 33, 7-β-[(Z)-2-(2-aminothiazol-4-yl)2-methoxyiminoacetamido]-3-(8-chloropyrrolo[1,2-a]pyrazinium-2-yl)methyl-3-cephem-4-carboxylate] | 0.2 (≈ 0.365 µM) | 0.2 (≈ 0.365 µM) | 0.2 (≈ 0.365 µM) | 25 (≈ 45.6 µM) | 0.78 (≈ 1.42 µM) | 0.2 (≈ 0.365 µM) | 0.05 (≈ 0.0912 µM) | 0.025 (≈ 0.0456 µM) | 0.05 (≈ 0.0912 µM) | 0.012 (≈ 0.0219 µM) | ≤ 0.006 | ≤ 0.006 | 0.012 (≈ 0.0219 µM) | ≤ 0.006 | 0.78 (≈ 1.42 µM) | 0.2 (≈ 0.365 µM) | 1.56 (≈ 2.85 µM) | ≤ 0.006 | ≤ 0.006 | 0.012 (≈ 0.0219 µM) |
